Test results as given in patent US7601512B2, “Methods for identifying inhibitors of the 20S and 26S proteasome” (Bayer CropScience AG, priority 2002, dated 2009).
≈ marks a conversion by molar mass, not a printed value. *1 amine or outer side, *2 acyl side, *3 side chain or, on linkers, in order; H or OH if unused. Where a SMILES comes first, the peptide text is derived from it. [ ]: non-standard residue; d: D form. The star is where a group is joined. AMC = Cc1cc(=O)oc2cc(N*)ccc12; Suc = O=C(CCC(=O)[*:2])[*:1]; Nva = CCC[C@H](N)C(=O)O; Cbz = O=C(OCc1ccccc1)*

How the values were obtained:
[1] = cited from earlier work
20S proteasome [2] = conditions: read-out: KM for Suc-LLVY-AMC; approx. 70 ng proteasomes per reaction, Lineweaver-Burke
Description: A constant amount of proteasomes (approx. 70 ng per reaction) was incubated with increasing amounts of substrate and the increase in fluorescence was then determined over a period of 5 minutes. The slopes of the curve (dotted line) were determined by calculating trend lines.

[3] = system: Pyricularia orycae (PYRIOR); assay: microbe, parasite or virus in culture; format: cell-based
Ustilago maydis (USTIMA) = assay: agar diffusion assay (fungicidal action, MIC); format: cell-based
[4] = system: Pseudocercosporella herpotrichoides (PSDCHW); assay: agar diffusion assay (fungicidal action, MIC); format: cell-based; conditions: PSDCHR
[5] = system: Fusarium culmorum (FUSACU); assay: agar diffusion assay (fungicidal action, MIC); format: cell-based
[6] = system: Rhizoctonia solani (RHIZSO); assay: agar diffusion assay (fungicidal action, MIC); format: cell-based
[7] = system: Botrytis cinerea (BOTRCI); assay: agar diffusion assay (fungicidal action, MIC); format: cell-based
S. cerevisiae = conditions: 30° C., Lee and Goldberg (1998); cited from earlier work
20S proteasome [8] = assay: 20S proteasome activity/inhibition assay with Suc-LLVY-AMC (AMC fluorescence); format: biochemical, yeast; Ustilago maydis; conditions: 40 nM MG-132, FIGS. 1 and 2
Description: FIG. 1 is an activity assay for the 20S proteasome from yeast. The substrate used for the chymotryptic activity was Suc-LLVY-AMC (SEQ. ID. NO. 1). Liberation of AMC was determined fluorometrically as a function of time. The proteasome activity was determined in a 1:100 dilution of a yeast extract in the presence of 40 nM MG132 and in the absence of MG-132. As a negative control, the reaction was carried out without enzyme (buffer).
FIG. 2 is an activity assay for the 20S proteasome from Ustilago maydis. The substrate used for the chymotryptic activity was Suc-LLVY-AMC (SEQ. ID. NO. 1). Liberation of AMC was determined fluorometrically as a function of time. The proteasome activity was determined in a 1:100 and 1:20 dilution of a U. maydis preparation. […]
The proteolytic activity measurable in this way can be influenced by an inhibitor such as, for example, MG-132, resulting in a lower relative fluorescence being observed (FIGS. 1 and 2). […]
The activity and inhibition assay which makes use of the known inhibitor MG-132 from Calbiochem and which is intended to check the usability of the method of the invention was carried out in 384-well MTPs (microtitre plates with 384 wells). […] The preliminary measurement (fluorescence) was carried out at 360/465 nm (35 nm bandwidth). […] The fluorescence was measured again at 360/465 nm (35 nm bandwidth).

Molecule: Suc-Leu-Leu-Val-Tyr-AMC (Suc-LLVY-{AMC}; SMILES Cc1cc(=O)oc2cc(NC(=O)[C@H](Cc3ccc(O)cc3)NC(=O)[C@@H](NC(=O)[C@H](CC(C)C)NC(=O)[C@H](CC(C)C)NC(=O)CCC(=O)O)C(C)C)ccc12) [Suc-LLVY-AMC]
- solubility in DMSO [1]: 50 mg/mL
- Km (20S proteasome [2]): 5 µM

Molecule: CCC[C@@H](C=O)NC(=O)[C@H](CC(C)C)NC(=O)[C@H](CC(C)C)NC(=O)OCc1ccccc1 [Example 1, Carbobenzoxy-L-leucyl-L-leucyl-L-norvalinal] (Cbz-Leu-Leu-[Nva]-aldehyde)
- MIC ([3]; Pyricularia, read-out: MIC (minimum inhibitory concentration)): 2 µg/mL (≈ 4.33 µM)
- MIC (Ustilago maydis (USTIMA); Mycosarcoma maydis, read-out: MIC (minimum inhibitory concentration)): 750 µg/mL (≈ 1620 µM)
- MIC ([4]; Oculimacula yallundae, read-out: MIC (minimum inhibitory concentration)): > 1000 µg/mL
- MIC ([5]; Fusarium culmorum, FUSACU, agar diffusion assay, read-out: MIC (minimum inhibitory concentration)): > 1000 µg/mL
- MIC ([6]; Rhizoctonia solani, read-out: MIC (minimum inhibitory concentration)): > 1000 µg/mL
- MIC ([7]; Botrytis cinerea, read-out: MIC (minimum inhibitory concentration)): 58.6 µg/mL (≈ 127 µM)

Molecule: Aprotinin [Example 2]
- MIC (minimum inhibitory concentration) ([3]; PYRIOR, agar diffusion assay): 18.0 ppm
- MIC (minimum inhibitory concentration) (Ustilago maydis (USTIMA)): 750 ppm
- MIC (minimum inhibitory concentration) [4]: >1000 ppm
- MIC (minimum inhibitory concentration) [5]: >1000 ppm
- MIC (minimum inhibitory concentration) [6]: >1000 ppm
- MIC (minimum inhibitory concentration) [7]: 339.3 ppm

Molecule: CC(C)C[C@@H](C=O)NC(=O)[C@H](CC(C)C)NC(=O)[C@H](CC(C)C)NC(=O)OCc1ccccc1 [MG-132, Z-Leu-Leu-Leu-CHO] (Cbz-Leu-Leu-Leu-aldehyde)
- effect on the growth rate of yeast cells (S. cerevisiae): only a minimum effect, if any
- relative fluorescence (proteasome activity) in presence of inhibitor (20S proteasome [8]): markedly reduces the relative fluorescence
